Measurements taken from US20220380370A1 (Goldfinch Bio, Inc., priority 2019, published 2022).

What follows are compounds tested against T1, CB1 receptor (Homo sapiens, UniProt P21554) (assay: CB1 cAMP antagonist assay (LANCE Ultra cAMP kit)). Conditions: CHO cells stably expressing the CB1 receptor; forskolin and agonist CP55940 at EC90.
T1 construct: Perkin Elmer (CB1-CHO cells); host or cells: Flp-In CHO cells or CB1-CHO cells, stably expressing
Assay type: cell-based
Excerpt: LANCE Ultra cAMP kit (Perkin Elmer) was used to quantitate the amount of 3′,5′-cyclic adenosine monophosphate (cAMP) produced in Flp-In CHO cells (Invitrogen) stably expressing the CB1 receptor, CB1-CHO cells (Perkin Elmer) stably expressing the CB1 receptor, or CB2-CHO cells (Perkin Elmer) stably expressing the CB2 receptor.
Forskolin was initially titrated to determine the response of the cells. The EC90 of forskolin was used for compound testing. CP55940 was titrated and used with EC90 of forskolin to determine the level of agonist stimulation. EC90 of the agonist was used for subsequent compound testing. For the CB1 assay, Forskolin (Sigma), CP55940 (Cayman Chemicals), and AM251 (MCE) were diluted in 100% DMSO, starting at 100 mM, 1 mM, and 1 mM respectively, in 3-fold serial dilutions. For the CB2 assay, Forskolin (Sigma), CP55940 (Cayman Chemicals), and AM630 (MCE) were diluted in 100% DMSO, starting at 100 mM, 1 mM, and 30 mM respectively, in 3-fold serial dilutions. Test compounds were diluted in 100% DMSO starting from 10 mM, 3-fold dilutions. The cAMP assay buffer contains 1× Hank's Buffered Saline Solution with Ca^2+ and Mg^2+ (Invitrogen), 5.3 mM HEPES (Invitrogen), 0.05% BSA, 0.5 mM IBMX (Sigma). For all assays, cells were harvested, counted, and diluted in cAMP assay buffer to 1×10^5 cells/mL. Only cells with viability >85% were used for the assay. Cells were seeded at 1000 cells/well in 384-well plates and 10 nL/well AM251 (for CB1), AM630 (for CB2) or test compound was added and incubated at 37° C. for 10 min. Then forskolin and agonist were added to reach their EC90 and incubated at 25° C. for 30 min. To detect the amount of cAMP produced, 5 μL of a 100× diluted stock of Eu-cAMP tracer and 5 μL of 200× diluted stock of Ulight-anti-cAMP were added to each well, and the plate incubated at 25° C. for 15 min. The FRET signal was read using an EnVision microplate reader (λex=320 nm, λem=615 nm and 665 nm). The results are expressed as % Inhibition, where % inhibition=100−100×(U−C2)/(C1−C2), where U is the FRET ratio (λem (665 nm)/λem (615 nm)) of sample, C1 is the average of the high controls (signal with no antagonist added), and C2 is the average of low controls (signal with the highest concentration of AM251 or AM630 antagonist). The IC50 is determined by fitting the percentage of inhibition as a function of compound concentrations with the Hill equation, using a 4-parameter fit in either XLfit or GraphPad Prism.

T1 sequence (P21554 whole entry): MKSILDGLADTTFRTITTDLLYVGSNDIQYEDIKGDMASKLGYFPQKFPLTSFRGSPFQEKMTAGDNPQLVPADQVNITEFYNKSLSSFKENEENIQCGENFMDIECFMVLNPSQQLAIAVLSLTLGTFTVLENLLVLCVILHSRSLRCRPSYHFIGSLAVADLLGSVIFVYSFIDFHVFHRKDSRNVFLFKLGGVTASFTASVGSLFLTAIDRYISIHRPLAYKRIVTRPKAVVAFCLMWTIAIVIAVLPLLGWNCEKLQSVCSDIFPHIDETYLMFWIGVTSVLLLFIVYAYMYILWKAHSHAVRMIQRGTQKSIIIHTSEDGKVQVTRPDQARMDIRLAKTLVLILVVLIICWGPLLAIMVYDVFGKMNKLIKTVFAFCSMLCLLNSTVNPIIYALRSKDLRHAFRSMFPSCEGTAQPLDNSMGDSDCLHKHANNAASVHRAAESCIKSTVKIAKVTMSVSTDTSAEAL

| IC50 | Compound |
| --- | --- |
| 100 to 1000 nM | CN(CCO)C(=O)c1ccc(Cn2c(=O)n(C)c(=O)c3c2nc(-c2ccccc2Cl)n3-c2ccc(Cl)cc2)cc1 [Compound 126] |
| 100 to 1000 nM | CC(=O)N1CCC(Cn2c(=O)n(C(C)C(N)=O)c(=O)c3c2nc(-c2ccccc2Cl)n3-c2ccc(Cl)cc2)CC1 (stereo not shown) [Compound 129, 2-[3-[(1-acetylpiperidin-4-yl)methyl]-8-(2-chlorophenyl)-7-(4-chlorophenyl)-2,6-dioxopurin-1-yl]propanamide] |
| 100 to 1000 nM | NC(=O)Cn1c(=O)c2c(nc(-c3ccccc3Cl)n2-c2ccc(Cl)cc2)n(Cc2ccc(CC(O)CO)cc2)c1=O (stereo in doubt) [Compound 148, 2-[8-(2-chlorophenyl)-7-(4-chlorophenyl)-3-([4-[(2R)-2,3-dihydroxypropyl]phenyl]methyl)-2,6-dioxopurin-1-yl]acetamide] |
| 100 to 1000 nM | CC(c1ccc(C(=O)NCCO)cc1)n1c(=O)n(C)c(=O)c2c1nc(-c1ccccc1Cl)n2-c1ccc(Cl)cc1 (stereo in doubt) [Compound 134, 4-[(1R)-1-[8-(2-chlorophenyl)-7-(4-chlorophenyl)-1-methyl-2,6-dioxopurin-3-yl]ethyl]-N-(2-hydroxyethyl)benzamide] |
| < 100 nM | NC(=O)Cn1c(=O)c2c(nc(-c3ccccc3Cl)n2-c2ccc(Cl)cc2)n(Cc2ccc(CN3CCOCC3)cc2)c1=O [Compound 121, 2-[8-(2-chlorophenyl)-7-(4-chlorophenyl)-3-([4-[(morpholin-4-yl)methyl]phenyl]methyl)-2,6-dioxo-2,3,6,7-tetrahydro-1H-purin-1-yl]acetamide] |
| 1000 to 5000 nM | NC(=O)Cn1c(=O)c2c(nc(-c3ncccc3Cl)n2-c2ccc(Cl)cc2)n(CC2CCS(=O)(=O)CC2)c1=O [Compound 163, 2-[7-(4-chlorophenyl)-8-(3-chloropyridin-2-yl)-3-[(1,1-dioxo-1λ^6-thian-4-yl)methyl]-2,6-dioxopurin-1-yl]acetamide] |
| 100 to 1000 nM | NC(=O)Cn1c(=O)c2c(nc(-c3ccccc3Cl)n2-c2ccc(Cl)cc2)n(CC2COCCO2)c1=O (stereo in doubt) [Compound 128, 2-[8-(2-chlorophenyl)-7-(4-chlorophenyl)-3-[(2S)-1,4-dioxan-2-ylmethyl]-2,6-dioxopurin-1-yl]acetamide] |
| 100 to 1000 nM | CC(=O)N1CCC(Cn2c(=O)n(CC(N)=O)c(=O)c3c2nc(-c2ccccc2Cl)n3-c2ccc(Cl)cc2)CC1 [Compound 123, 2-[3-[(1-acetylpiperidin-4-yl)methyl]-8-(2-chlorophenyl)-7-(4-chlorophenyl)-2,6-dioxopurin-1-yl]acetamide] |
| 100 to 1000 nM | Cn1c(=O)c2c(nc(-c3ccccc3Cl)n2-c2ccc(Cl)cc2)n(CC2CCN(CC(N)=O)CC2)c1=O [Compound 115, 2-(4-[[8-(2-chlorophenyl)-7-(4-chlorophenyl)-1-methyl-2,6-dioxo-2,3,6,7-tetrahydro-1H-purin-3-yl]methyl]piperidin-1-yl)acetamide] |
| < 100 nM | Cn1c(=O)c2c(nc(-c3ccccc3Cl)n2-c2ccc(Cl)cc2)n(Cc2ccc(C(=O)NC3CCOC3)cn2)c1=O (stereo not shown) [Compound 167] |
| < 100 nM | NC(=O)Cn1c(=O)c2c(nc(-c3ccc(F)cc3Cl)n2-c2ccc(Cl)cc2)n(CC2CCS(=O)(=O)CC2)c1=O [Compound 173] |
| < 100 nM | Cn1c(=O)c2c(nc(-c3ccccc3Cl)n2-c2ccc(Cl)cc2)n(CC2CCCCC2)c1=O [Compound 110, 8-(2-chlorophenyl)-7-(4-chlorophenyl)-3-(cyclohexylmethyl)-1-methyl-2,3,6,7-tetrahydro-1H-purine-2,6-dione] |
| < 100 nM | O=c1[nH]c(=O)n(Cc2ccc(Cl)cc2)c2nc(-c3ccccc3Cl)n(-c3ccc(Cl)cc3)c12 [Compound 119, 8-(2-chlorophenyl)-7-(4-chlorophenyl)-3-[(4-chlorophenyl)methyl]-2,3,6,7-tetrahydro-1H-purine-2,6-dione] |
| < 100 nM | NC(=O)Cn1c(=O)c2c(nc(-c3ccccc3Cl)n2-c2ccc(Cl)cc2)n(CC2(O)CCOCC2)c1=O [Compound 168, 2-[8-(2-chlorophenyl)-7-(4-chlorophenyl)-3-[(4-hydroxyoxan-4-yl)methyl]-2,6-dioxopurin-1-yl]acetamide] |
| < 100 nM | NC(=O)Cn1c(=O)c2c(nc(-c3ccccc3Cl)n2-c2ccc(Cl)cc2)n(Cc2ccc(S(N)(=O)=O)cc2)c1=O [Compound 153] |
| 100 to 1000 nM | CC(=O)N1CCC(Cn2c(=O)n(C[C@@H](O)CO)c(=O)c3c2nc(-c2ccccc2Cl)n3-c2ccc(Cl)cc2)CC1 [Compound 130, (R)-3-[(1-acetylpiperidin-4-yl)methyl]-8-(2-chlorophenyl)-7-(4-chlorophenyl)-1-[2,3-dihydroxypropyl]purine-2,6-dione] |

| IC50 | Compound |
| --- | --- |
| < 100 nM | C[C@@H](CO)NC(=O)c1ccc(Cn2c(=O)n(C)c(=O)c3c2nc(-c2ccccc2Cl)n3-c2ccc(Cl)cc2)nc1 [Compound 160] |
| < 100 nM | C[C@@H](Cn1c(=O)c2c(nc(-c3ccccc3Cl)n2-c2ccc(Cl)cc2)n(CC2CCS(=O)(=O)CC2)c1=O)C(N)=O [Compound 174, (2S)-3-[8-(2-chlorophenyl)-7-(4-chlorophenyl)-3-[(1,1-dioxo-1λ^6-thian-4-yl)methyl]-2,6-dioxopurin-1-yl]-2-methylpropanamide] |
| < 100 nM | NC(=O)Cn1c(=O)c2c(nc(-c3ccccc3Cl)n2-c2ccc(Cl)cc2)n(CC2COCCO2)c1=O (racemic) [Compound 124, 2-[8-(2-chlorophenyl)-7-(4-chlorophenyl)-3-(1,4-dioxan-2-ylmethyl)-2,6-dioxopurin-1-yl]acetamide] |
| 100 to 1000 nM | C[C@@H](c1ccc(C(N)=O)cc1)n1c(=O)n(C[C@@H](O)CO)c(=O)c2c1nc(-c1ccccc1Cl)n2-c1ccc(Cl)cc1 [Compound 151] |
| 100 to 1000 nM | CN(CCO)Cc1ccc(Cn2c(=O)n(C)c(=O)c3c2nc(-c2ccccc2Cl)n3-c2ccc(Cl)cc2)cc1 [Compound 120] |
| 100 to 1000 nM | Cn1nccc1-c1nc2c(c(=O)n(C)c(=O)n2Cc2ccc(S(N)(=O)=O)cn2)n1-c1ccc(Cl)cc1 [Compound 182, 6-[[7-(4-chlorophenyl)-1-methyl-8-(2-methylpyrazol-3-yl)-2,6-dioxopurin-3-yl]methyl]pyridine-3-sulfonamide] |
| < 100 nM | CS(=O)(=O)c1ccc(Cn2c(=O)n(CC(N)=O)c(=O)c3c2nc(-c2ccccc2Cl)n3-c2ccc(Cl)cc2)cc1 [Compound 155, 2-[8-(2-chlorophenyl)-7-(4-chlorophenyl)-3-[(4-methanesulfonylphenyl)methyl]-2,6-dioxopurin-1-yl]acetamide] |
| < 100 nM | CC(C)(C)C(=O)OCn1c(=O)c2c(nc(-c3ccccc3Cl)n2-c2ccc(Cl)cc2)n(C2CCCCC2)c1=O [Compound 102] |
| < 100 nM | C[C@H](c1ccc(S(N)(=O)=O)cn1)n1c(=O)n(C)c(=O)c2c1nc(-c1ccccc1Cl)n2-c1ccc(Cl)cc1 [Compound 180, 6-[(1R)-1-[8-(2-chlorophenyl)-7-(4-chlorophenyl)-1-methyl-2,6-dioxopurin-3-yl]ethyl]pyridine-3-sulfonamide] |
| ≥ 5000 nM | NC(=O)Cn1c(=O)c2c(nc(-c3ccccc3Cl)n2-c2ccc(Cl)cc2)n(CC2CCN(CCO)CC2)c1=O [Compound 117] |
| 1000 to 5000 nM | Cn1c(=O)[nH]c2nc(-c3ccccc3Cl)n(-c3ccc(Cl)cc3)c2c1=O [Compound 147, 8-(2-chlorophenyl)-7-(4-chlorophenyl)-1-methyl-3H-purine-2,6-dione] |
| < 100 nM | COCCOCc1ccc(Cn2c(=O)n(C)c(=O)c3c2nc(-c2ccccc2Cl)n3-c2ccc(Cl)cc2)cc1 [Compound 122, 8-(2-chlorophenyl)-7-(4-chlorophenyl)-3-([4-[(2-methoxyethoxy)methyl]phenyl]methyl)-1-methylpurine-2,6-dione] |
| 1000 to 5000 nM | CN1CCN(Cc2ccc(Cn3c(=O)n(CC(N)=O)c(=O)c4c3nc(-c3ccccc3Cl)n4-c3ccc(Cl)cc3)cc2)CC1 [Compound 118] |
| 100 to 1000 nM | C[C@H](C(N)=O)n1c(=O)c2c(nc(-c3ccccc3Cl)n2-c2ccc(Cl)cc2)n(C2CCOCC2)c1=O [Compound 137] |
| < 100 nM | NC(=O)Cn1c(=O)c2c(nc(-c3ccccc3Cl)n2-c2ccc(Cl)cc2)n(Cc2ccc(CC3COCCO3)cc2)c1=O (stereo not shown) [Compound 143] |
